For 93 molecules, AC50 results are on record in PubChem BioAssay AID463074 (Broad Institute, 2010).

The source made the active and inactive calls.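 The calls were made as follows: active = AC50 no more than tenfold above the top dose tested, or full inhibition at every dose with a flat fit (cut at about 19 µM in these data); inconclusive = flat curve fit with inhibition between 30% and 70%, or poor fit; inactive = AC50 more than tenfold above the top dose tested.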 A value given as a limit tells only on which side of the number the result lay.

The subject of the assay is HMLE_sh_eGFP viability, CellTiter-Glo luminescence, 72 h. The experiment in a line: viability loss of HMLE_sh_eGFP cells – cell-based, luminescence, counter-screen for HMLE_sh_ECad selective toxicity project, dose response (AID 463074).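 Also: counterscreen control line to flag general toxicity for the HMLE_sh_ECad screen; potency for loss of viability as luminescence drops below DMSO wells.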
In the case of `CNC[C@H](CC1CCCCC1)NC[C@H](CO)NCCc1cccc(C(F)(F)F)c1`, the AC50 (usually the concentration giving half of the maximal activity seen) was 6.71 µM.
Under `CCOc1ccc2nc(NC3=NC(c4ccc(OC)cc4)CC(=O)N3)nc(C)c2c1` (stereo not drawn) stands 7.28 µM; under `NC(=O)CC(NC(=O)Cc1ccc(Br)cc1)c1ccc(NCc2cc(F)ccc2F)c([N+](=O)[O-])c1` (stereo not drawn), 3.36 µM.
On to `CCN1CCN(C(=S)Nc2sc(C)c(-c3ccccc3)c2C(=O)OC)CC1`, for which the half-maximal activity concentration (AC50) was 4.72 µM.
`COC(=O)c1c(NC(=O)Cc2cccs2)sc2c1CCC(C)C2` (stereo not drawn): the concentration at half-maximal activity (AC50) is 9.75 µM.
Regarding `FC(F)(F)c1ccc(-c2noc(CN3CCCN(C4CCCCC4)CC3)n2)cc1`, the AC50 is 7.39 µM.
For `O=C(O)c1ccc(CSc2nc(-c3ccc(Cl)cc3)cc(C(F)(F)F)n2)cc1`, the concentration at half-maximal activity (AC50) was 9.94 µM.
As for `Nc1cc(Cl)ccc1Oc1ccc2ccccc2c1`, the AC50 is > 10 µM (inactive).
With `CSc1nc(C)cc(OCC(=O)N/N=C/c2ccccc2O)n1`, the half-maximal activity concentration (AC50) is 11 µM.
The result for `CC(C)N1CCN(Cc2ccc(OCc3ccccc3)cc2)CC1CCO` (stereo not drawn) reads 11.5 µM; that for `COc1cc(C(=O)N/N=C(\Cc2ncc[nH]2)c2ccccc2)cc(OC)c1OC`, 6.39 µM.
For the molecule `Cc1cc(C)c(C(CC(=O)c2cccs2)C(C#N)C#N)c(C)c1` (stereo not drawn), the concentration at half-maximal activity (AC50) is 5.9 µM.
`Cc1cccc(NC(=S)N/N=C/c2c[nH]c3ccccc23)c1`: the AC50 is 1.63 µM.
On to `CCCc1cc(-c2nc(N)ncc2-c2ccc3c(c2)OCCCO3)c(O)cc1OC`, for which the concentration at half-maximal activity (AC50) is 4.18 µM.
Under `COC(=O)Nc1ccc(S(=O)(=O)N2c3ccccc3CCC2C)cc1` (stereo not drawn) stands 1.42 µM.
Take `OCCNc1nc(Nc2ccc(Cl)c(Cl)c2)nc2ccccc12`: the AC50 was 6.96 µM.
On to `COc1ccc(-c2sc3ccc(N4CCOCC4)cc3c2C#CCCO)cc1`, for which the AC50 was 4.73 µM.
For the molecule `COc1ccc2cc1Oc1ccc(cc1)C[C@H]1c3c(cc(OC)c4c3Oc3c(ccc5c3[C@H](C2)N(C)CC5)O4)CCN1C`, the concentration at half-maximal activity (AC50) is 3.63 µM.
Regarding `CCCc1nc2ccccc2c(C(=O)OCC(=O)N2CCc3ccccc32)c1CC`, the concentration at half-maximal activity (AC50) was 3.97 µM.
With `CCOc1cc(NC(=O)c2ccccn2)c(OCC)cc1NC(=O)c1ccccc1`, the AC50 was > 19.5 µM (inactive).
Take `COc1ccc(Cc2nnc(N/N=C/c3ccc(O)cc3O)[nH]c2=O)cc1OC`: the half-maximal activity concentration (AC50) was 8.14 µM.
Turning to `O=c1c(Cl)c(NCc2ccccc2)cnn1C12CC3CC(CC(C3)C1)C2`, the AC50 was 3.19 µM.
The result for `FC(F)(F)c1cc(CCN2CCNC[C@H]2Cc2cccc3ccccc23)cc(C(F)(F)F)c1` reads 3.53 µM.
Turning to `CCOC(=O)c1cc(-c2cccs2)nc2c1c(C)nn2-c1ccccn1`, the AC50 is 11.8 µM.
In the case of `COc1ccc(-c2sc3cc4c(cc3c2-c2ccc(OCCN3CCOCC3)cc2)OCO4)cc1`, the AC50 is 0.254 µM.
Turning to `Nc1ccc(N=Nc2ccccc2)c2ccccc12`, the half-maximal activity concentration (AC50) is 12.6 µM.
For the molecule `COc1ccc(N/N=C/c2c(O)n(-c3ccc(C)c(C)c3)c(=O)[nH]c2=O)cc1`, the half-maximal activity concentration (AC50) is 1.12 µM.
Consider `CCCCCCSc1nsc(NC(=O)CC(C)C)n1`, for which the AC50 was 9.2 µM.
The result for `CC(C)n1cnc2c(NCc3ccccc3)cc(Cc3ccc(F)cc3)cc21` reads 4.67 µM; that for `Cc1cccc(Cn2cc(/C=C/[N+](=O)[O-])c3ccccc32)c1`, 3.47 µM; that for `O=C(CCSc1ccc(Cl)cc1)N1CCN(c2ccc(O)cc2)CC1`, 1.48 µM.
`O=C(Nc1ccc2c(c1)OCO2)c1cc(-c2cccc(O)c2)on1`: the half-maximal activity concentration (AC50) was 1.65 µM.
The result for `O=C(NCc1nc(-c2ccc(C(F)(F)F)cc2)no1)Nc1cc(Cl)cc(Cl)c1` reads 2.46 µM; that for `Cc1oc2c(c1C(=O)N1CCC(C)CC1)C(=O)c1ccccc1C2=O`, 7.99 µM; that for `Cc1ccc(C(C[N+](=O)[O-])n2nc(C)cc2C)cc1` (stereo not drawn), 6.74 µM.
In the case of `Cc1ccc(Cl)cc1NC(=S)N/N=C/c1cccc2ccccc12`, the concentration at half-maximal activity (AC50) was 0.298 µM.
On to `Fc1ccc(NC(=S)Nc2cc(-c3ccccc3)[nH]n2)cc1Cl`, for which the AC50 was 3.46 µM.
Consider `Cc1ccc(OCCN2CCN(c3nc(NCc4ccco4)c4ccccc4n3)CC2)cc1`, for which the concentration at half-maximal activity (AC50) was 4.66 µM.
For the molecule `Cc1ccc(COc2ccc(Br)cc2/C=N/O)cc1`, the AC50 is 5.23 µM.
Turning to `Cc1cc(C)c2c(c1)/C(=C/C(=O)c1ccc(Br)s1)C(=O)N2`, the concentration at half-maximal activity (AC50) was 5.47 µM.
Turning to `CC(C)=CCc1c(O)ccc(C(=O)Cc2ccccc2)c1O`, the AC50 was 4.41 µM.
Consider `COc1nc(N2CCCCCC2)nc(N2CCCCCC2)n1`, for which the AC50 is 7.43 µM.
As for `O=C(Nc1ccc(-c2csc(Nc3cccc(C(F)(F)F)c3)n2)cc1)c1cc([N+](=O)[O-])cc(C(F)(F)F)c1`, the AC50 was 1.93 µM.
For `Cc1ccc(C)c(NC(=S)NC(NC(=O)Cc2cccc3ccccc23)C(Cl)(Cl)Cl)c1` (stereo not drawn), the AC50 is 1.97 µM.
On to `Cc1ccc(OC/C(O)=C(\C#N)c2nc3ccccc3s2)cc1`, for which the AC50 is 6.81 µM.
Under `CC(C)(C)[C@H](N)C(=O)N[C@H]1CCC2C3CC=C4C[C@@H](O)CC[C@]4(C)C3CC[C@@]21C` (stereo partly drawn) stands 7.74 µM; under `CC(C)Cn1c(O)c(N=NC(=O)c2cccc(S(=O)(=O)N3CCCCC3)c2)c2ccccc21`, 1.57 µM; under `O=C(NCc1ccc2c(c1)OCO2)c1nc(S(=O)(=O)Cc2ccccc2F)ncc1Cl`, 6.81 µM.
Take `COC(=O)c1ccc(COc2ccccc2/C=C(\C#N)C(=O)Nc2c(C)cc(C)cc2C)cc1`: the AC50 was 2.08 µM.
Under `CCCCCCSc1cc(-c2nc3ccc(C)cn3c2NCCCC)ccc1OC` stands 6.6 µM.
On to `C[C@@H]1CC=C[C@H]2[C@H]1C(=O)N(Cc1ccccc1)[C@H]2c1ccc2ccccc2c1`, for which the half-maximal activity concentration (AC50) is 6.67 µM.
For `CCn1c(=O)c(C(=O)NCCc2ccccc2)c(O)c2ccccc21`, the AC50 is 5.62 µM.
Take `CCOC(=O)c1c(NC(NC(=O)C(C)C)C(Cl)(Cl)Cl)sc2c1CCC2` (stereo not drawn): the half-maximal activity concentration (AC50) is 7.47 µM.
On to `C=CCC[C@H](Cc1ccc(F)cc1)C(=O)OC[C@@H](Cc1c[nH]c2ccccc12)NC(=O)[C@@H](CC=C)CC(=O)N(CCO)Cc1ccccc1`, for which the concentration at half-maximal activity (AC50) was 4.34 µM.
Turning to `CC(C)=CCCC1(C)C=Cc2c(c(C)cc3c2[nH]c2cc(O)ccc23)O1` (stereo not drawn), the half-maximal activity concentration (AC50) is 6.29 µM.
Consider `NC(=O)CC(NC(=O)Cc1ccc(Br)cc1)c1ccc(N2CCN(c3ccccc3)CC2)c([N+](=O)[O-])c1` (stereo not drawn), for which the AC50 is 17.6 µM.
The result for `O=C1c2cc(Br)ccc2N(Cc2ccc(Br)cc2)S(=O)(=O)C1c1cc(Cl)c(Cl)cc1[N+](=O)[O-]` (stereo not drawn) reads 3.07 µM.
As to `Cn1nnnc1Sc1ncnc2scc(-c3cccc(Br)c3)c12`, the concentration at half-maximal activity (AC50) was 3.14 µM.
In the case of `CCC1=NN(C(=O)c2ccc(Cl)cc2)C(O)(c2ccc(C)cc2)C1` (stereo not drawn), the half-maximal activity concentration (AC50) is 7.99 µM.
Turning to `OC(COc1cccc2ccccc12)CN1CCN(c2ccc(Cl)cc2)CC1` (stereo not drawn), the half-maximal activity concentration (AC50) is 7.09 µM.
The result for `CN(C)CCNc1nc2sc3c(c2c(=O)n1CCc1ccccc1)CCCCC3` reads 7.1 µM; that for `O=C(Nc1ccc(C(F)(F)F)cc1)c1cccn(Cc2ccc3c(c2)OC(F)(F)O3)c1=O`, 4.91 µM.
Regarding `O=C(Nc1ccccc1Cc1ccccc1)c1ccccc1NS(=O)(=O)c1ccc(Cl)s1`, the AC50 was 1.84 µM.
Under `COc1ccc(-c2noc3c2-c2nc(-c4ccccc4C)sc2CC3)cc1` stands 1.03 µM.
Turning to `O=C(/C=C/c1ccc(Cl)cc1)c1ccc([N+](=O)[O-])o1`, the AC50 is 2.19 µM.
Take `O=C(/C=C/c1ccc2c(c1)OCO2)Nc1nc(-c2ccccc2)cs1`: the AC50 is 0.781 µM.
Take `CC(=O)Oc1ccc(-c2ccc(C(=O)Nc3cccc(S(=O)(=O)N4CCOCC4)c3)cc2)cc1`: the AC50 is 1.46 µM.
The result for `COc1cccc(-c2sc3ccccc3c2-c2ccc(OCCN3CCCC3)cc2)c1` reads 2.81 µM; that for `O=c1c(Cl)c(NCc2ccccc2Cl)cnn1C12CC3CC(CC(C3)C1)C2`, 2.43 µM.
For `FC(F)(F)c1nnc(-c2ccccc2)nc1Sc1ccc(Cl)cc1`, the concentration at half-maximal activity (AC50) is 6.48 µM.
The result for `O=C(CNC(=S)N(Cc1ccccc1)Cc1ccccc1F)NCCc1ccc(Cl)cc1` reads 6.98 µM.
Under `O=C(c1cnc2ccc3ccccc3c2c1)c1cc(F)ccc1O` stands 0.86 µM; under `CCCCCc1cc(=O)oc2c(C(CCN3CCCC(C)C3)c3ccc(N(C)C)cc3)c(OC)cc(OC)c12` (stereo not drawn), 6.69 µM; under `CC(C)=CCc1c(O)cc2c(c1O)C(=O)CC(c1ccc(O)cc1)O2` (stereo not drawn), 3.74 µM.
For the molecule `CN1CCC(OC(=O)c2cccc(Cl)c2)CC1`, the AC50 is 3.33 µM.
The result for `S=C(Nc1ccc(Oc2ccccc2)cc1)NC1CCCCCC1` reads 4.84 µM.
Consider `O=C(c1ccc(C#CC2(O)CCCCC2)cc1)N1CCN(C(c2ccccc2)c2ccccc2)CC1`, for which the half-maximal activity concentration (AC50) is 2.52 µM.
Consider `COc1cc(/C=N/NC(=O)c2ccc(CN(C)S(=O)(=O)c3ccc(C)cc3)cc2)ccc1O`, for which the AC50 is 5.13 µM.
The result for `O=C(CCCN1C(=O)/C(=C/c2ccccc2)SC1=S)NCCCn1ccnc1` reads > 19.5 µM (inactive); that for `CCc1ccc(NC(=O)C(CC)Sc2nc3cc4c(cc3c(=O)n2Cc2ccco2)OCO4)cc1` (stereo not drawn), 13.1 µM.
On to `CC(C(=O)O)N1C(=O)CSc2ncccc21` (stereo not drawn), for which the AC50 is > 19.5 µM (inactive).
The result for `CCSc1nnc(NC(=O)NC(CC)(C(F)(F)F)C(F)(F)F)s1` reads 12 µM; that for `Cc1cc(C)c(OCCCCN2CCNCC2)c(C)c1`, 16 µM.
Under `Cc1ccc(S(=O)(=O)Nc2ccccc2-c2ccccc2NS(=O)(=O)c2ccc(C)cc2)cc1` stands 6.98 µM.
For `Cc1nc2ccc(Br)cn2c1C(=O)N/N=C\c1ccc(C(C)C)cc1`, the half-maximal activity concentration (AC50) was 4.34 µM.
Consider `CCCOc1ccccc1-n1sc2c(c1=S)-c1cc(OC)cc3c1N(C(=O)C3=O)C2(C)C`, for which the AC50 is 9.1 µM.
In the case of `O=[N+]([O-])c1ccccc1-c1ccc(C(=S)N2CCN(c3ccccc3)CC2)o1`, the AC50 is > 19.5 µM (inactive).
For the molecule `CC(=O)Nc1ccc(-c2csc(NC(=O)CCCc3cccs3)n2)cc1`, the half-maximal activity concentration (AC50) was 0.986 µM.
On to `CCNC(=O)c1c(NC(=O)c2cc(-c3cc(C)ccc3O)n[nH]2)sc2c1CCCC2`, for which the AC50 is 4.99 µM.
Under `COc1cccc2sc3cc(C#CC4(O)CCCCC4)ccc3c(=O)c12` stands 3.1 µM; under `N#C/C(=C/c1cn(-c2ccccc2)nc1-c1cccc(OCc2ccc(F)cc2)c1)C(=O)NCCCn1ccnc1`, 3.4 µM; under `O=C(NNC1=C(C(=O)C(F)(F)F)CCC1)c1cccc(Cl)c1`, 3.64 µM.
Consider `O=[N+]([O-])c1ccc(S(=O)(=O)Nc2ccc(-c3csc(-c4ccccc4)n3)cc2)cc1`, for which the AC50 is 4.06 µM.
